Molecular target: T1, human IKK-β (Homo sapiens, UniProt O14920)
T1 construct: A cDNA fragment encoding human IKK-β open reading frame was generated by PCR; His tag (from pcDNA3.1/His C); made in house; host or cells: Sf21 insect cells (baculovirus); substrate made in E. coli
T1 sequence (O14920 1-756): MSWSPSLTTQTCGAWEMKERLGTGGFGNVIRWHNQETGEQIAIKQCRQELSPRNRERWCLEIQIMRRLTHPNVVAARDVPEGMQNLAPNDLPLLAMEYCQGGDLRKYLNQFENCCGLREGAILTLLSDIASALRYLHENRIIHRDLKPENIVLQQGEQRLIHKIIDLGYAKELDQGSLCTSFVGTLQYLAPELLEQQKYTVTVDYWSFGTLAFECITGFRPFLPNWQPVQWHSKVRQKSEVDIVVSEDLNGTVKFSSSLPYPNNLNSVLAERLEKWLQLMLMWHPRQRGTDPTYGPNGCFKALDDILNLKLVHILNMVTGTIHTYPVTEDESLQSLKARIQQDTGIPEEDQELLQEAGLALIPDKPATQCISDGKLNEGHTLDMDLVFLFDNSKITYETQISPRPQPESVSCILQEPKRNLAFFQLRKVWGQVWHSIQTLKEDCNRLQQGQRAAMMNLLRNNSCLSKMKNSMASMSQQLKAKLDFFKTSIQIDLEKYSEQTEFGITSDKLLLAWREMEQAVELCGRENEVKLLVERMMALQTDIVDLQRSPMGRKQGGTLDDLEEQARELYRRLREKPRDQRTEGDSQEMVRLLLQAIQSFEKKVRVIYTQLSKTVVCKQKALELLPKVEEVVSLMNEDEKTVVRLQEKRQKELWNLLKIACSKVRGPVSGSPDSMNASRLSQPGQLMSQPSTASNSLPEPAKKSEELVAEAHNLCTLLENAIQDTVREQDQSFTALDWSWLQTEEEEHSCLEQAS
Test: IKK-β kinase inhibitory assay
Type: biochemical
Conditions: compounds as yielded by solid phase synthesis, purity about 40 to 90%, read-out: In vitro activity grade (In vitro IC50)
How it was run: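 Radiometric read-out: streptavidin capture of 33P-labelled bio-GST-IκBα(1-54), 0.2 μM, after a 2 h room-temperature reaction started with ATP/[γ-33P]ATP. Enzyme was recombinant His-tagged human IKK-β expressed in Sf21 insect cells, used at 0.6 μg/ml in Tris-HCl pH 7.6/MgCl2 kinase buffer. Compounds added in 2.5% DMSO.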

| IC50 | Compound |
| --- | --- |
| 0.5 to 2 µM | N#Cc1c(N2CCCNCC2)cc(-c2ccccc2O)nc1N [Example 34-08] |
| < 0.5 µM | CNCCNc1cc(-c2ccccc2O)nc(N)c1C#N [Example 34-12] |
| < 0.5 µM | O=C1CCc2c(C3CCNCC3)cc(-c3c(O)cccc3OCC3CC3)nc2N1 [Example 27-04] |
| < 0.5 µM | N#Cc1c(NCCNS(=O)(=O)c2ccccc2)cc(-c2c(O)cccc2OCC2CC2)nc1N [Example 34-17] |
| < 0.5 µM | CCOC(=O)C1Cc2c(C3CCCNC3)cc(-c3c(O)cccc3OCC3CC3)nc2NC1=O (centres unmarked) [Example 26-03] |
| < 0.5 µM | CCCOc1cccc(O)c1-c1cc(C2CCCNC2)c2c(n1)NC(=O)C(C(=O)OCC)C2 (centres unmarked) [Example 26-06] |
| < 0.5 µM | O=C(NC1CCCCCC1)c1cc2c(C3CCCNC3)cc(-c3c(O)cccc3OCC3CC3)nc2[nH]c1=O (centres unmarked) [Example 31-24] |
| < 0.5 µM | CCCOc1cccc(O)c1-c1cc(C2CCNCC2)c2c(n1)NC(=O)CC2 [Example 27-05] |
| < 0.5 µM | O=C(c1cc2c(C3CCCNC3)cc(-c3c(O)cccc3OCC3CC3)nc2[nH]c1=O)N1CCCC1 (centres unmarked) [Example 31-05] |
| < 0.5 µM | C[C@@H](NC(=O)c1cc2c(C3CCCNC3)cc(-c3c(O)cccc3OCC3CC3)nc2[nH]c1=O)c1ccccc1 (some centres unmarked) [Example 31-15] |
| < 0.5 µM | CN(C)C(=O)c1cc2c(C3CCCNC3)cc(-c3c(O)cccc3OCC3CC3)nc2[nH]c1=O (centres unmarked) [Example 31-04] |
| < 0.5 µM | O=C(c1cc2c(C3CCCNC3)cc(-c3c(O)cccc3OCC3CC3)nc2[nH]c1=O)N1CCNCC1 (centres unmarked) [Example 31-09] |
| < 0.5 µM | N#Cc1cc2c(C3CCCNC3)cc(-c3c(O)cccc3OCC3CC3)nc2[nH]c1=O (centres unmarked) [Example 25-06] |
| < 0.5 µM | O=C(NC1CCCCC1)c1cc2c(C3CCCNC3)cc(-c3c(O)cccc3OCC3CC3)nc2[nH]c1=O (centres unmarked) [Example 31-18] |
| 2 to 10 µM | N#Cc1c(N2CCCC(C(N)=O)C2)cc(-c2ccccc2O)nc1N (centres unmarked) [Example 34-06] |
| < 0.5 µM | O=C(NC(c1ccccc1)c1ccccc1)c1cc2c(C3CCCNC3)cc(-c3c(O)cccc3OCC3CC3)nc2[nH]c1=O (centres unmarked) [Example 31-13] |
| < 0.5 µM | N#Cc1c(NCCN)cc(-c2ccccc2O)nc1N [Example 34-10] |
| < 0.5 µM | N#Cc1c(NCCNC(=O)Nc2ccccc2)cc(-c2c(O)cccc2OCC2CC2)nc1N [Example 34-18] |
| < 0.5 µM | C[C@H](NC(=O)c1cc2c(C3CCCNC3)cc(-c3c(O)cccc3OCC3CC3)nc2[nH]c1=O)C(=O)O (some centres unmarked) [Example 31-16] |
| < 0.5 µM | O=C(NC1CCCC1)c1cc2c(C3CCCNC3)cc(-c3c(O)cccc3OCC3CC3)nc2[nH]c1=O (centres unmarked) [Example 31-23] |
| < 0.5 µM | CCCOc1cccc(O)c1-c1cc(C2CCCNC2)c2c(n1)NC(=O)CC2 (centres unmarked) [Example 27-02] |
| < 0.5 µM | N#Cc1c(NCCNC(=O)c2ccccc2)cc(-c2c(O)cccc2OCC2CC2)nc1N [Example 34-16] |
| < 0.5 µM | N#Cc1c(NCCCN)cc(-c2ccccc2O)nc1N [Example 34-11] |
| < 0.5 µM | NC(=O)C1Cc2c(C3CCCNC3)cc(-c3c(O)cccc3OCC3CC3)nc2NC1=O (centres unmarked) [Example 26-05] |
| < 0.5 µM | CNC(=O)c1cc2c(C3CCCNC3)cc(-c3c(O)cccc3OCC3CC3)nc2[nH]c1=O (centres unmarked) [Example 31-03] |

| IC50 | Compound |
| --- | --- |
| < 0.5 µM | CC(C)NC(=O)c1cc2c(C3CCCNC3)cc(-c3c(O)cccc3OCC3CC3)nc2[nH]c1=O (centres unmarked) [Example 31-10] |
| < 0.5 µM | O=C(NC1Cc2ccccc2C1)c1cc2c(C3CCCNC3)cc(-c3c(O)cccc3OCC3CC3)nc2[nH]c1=O (centres unmarked) [Example 31-12] |
| < 0.5 µM | O=C(NCC1CCCCC1)c1cc2c(C3CCCNC3)cc(-c3c(O)cccc3OCC3CC3)nc2[nH]c1=O (centres unmarked) [Example 31-19] |
| < 0.5 µM | N#Cc1c(NCCNCc2ccccc2)cc(-c2c(O)cccc2OCC2CC2)nc1N [Example 34-15] |
| < 0.5 µM | O=C(NC1CC1)c1cc2c(C3CCCNC3)cc(-c3c(O)cccc3OCC3CC3)nc2[nH]c1=O (centres unmarked) [Example 31-21] |
| < 0.5 µM | O=C1CCc2c(C3CCCNC3)cc(-c3c(O)cccc3OCC3CC3)nc2N1 (centres unmarked) [Example 27-03, 7-[2-(cyclopropylmethoxy)-6-hydroxyphenyl]-5-(3-piperidinyl)-3,4-dihydro-1,8-naphthyridin-2(1H)-one] |
| < 0.5 µM | CCC(CC)NC(=O)c1cc2c(C3CCCNC3)cc(-c3c(O)cccc3OCC3CC3)nc2[nH]c1=O (centres unmarked) [Example 31-25] |
| < 0.5 µM | O=C(NCCc1ccccc1)c1cc2c(C3CCCNC3)cc(-c3c(O)cccc3OCC3CC3)nc2[nH]c1=O (centres unmarked) [Example 31-17] |
| < 0.5 µM | O=C(NCCO)c1cc2c(C3CCCNC3)cc(-c3c(O)cccc3OCC3CC3)nc2[nH]c1=O (centres unmarked) [Example 31-20] |
| < 0.5 µM | C[C@H](NC(=O)c1cc2c(C3CCCNC3)cc(-c3c(O)cccc3OCC3CC3)nc2[nH]c1=O)c1ccccc1 (some centres unmarked) [Example 31-14] |
| < 0.5 µM | N#Cc1c(N2CCNCC2)cc(-c2ccccc2O)nc1N [Example 34-09] |
| < 0.5 µM | NC(=O)c1cc2c(C3CCCNC3)cc(-c3c(O)cccc3OCC3CC3)nc2[nH]c1=O (centres unmarked) [Example 25-08] |
| < 0.5 µM | N#Cc1c(NC2CCNCC2)cc(-c2ccccc2O)nc1N [Example 34-07] |
| < 0.5 µM | COCCNC(=O)c1cc2c(C3CCCNC3)cc(-c3c(O)cccc3OCC3CC3)nc2[nH]c1=O (centres unmarked) [Example 31-07] |
| < 0.5 µM | CCCC(CCC)NC(=O)c1cc2c(C3CCCNC3)cc(-c3c(O)cccc3OCC3CC3)nc2[nH]c1=O (centres unmarked) [Example 31-26] |
| < 0.5 µM | O=C(NCC(F)(F)F)c1cc2c(C3CCCNC3)cc(-c3c(O)cccc3OCC3CC3)nc2[nH]c1=O (centres unmarked) [Example 31-27] |
| < 0.5 µM | CN(C)CCNC(=O)c1cc2c(C3CCCNC3)cc(-c3c(O)cccc3OCC3CC3)nc2[nH]c1=O (centres unmarked) [Example 31-11] |
| < 0.5 µM | O=c1[nH]c2nc(-c3c(O)cccc3OCC3CC3)cc(C3CCCNC3)c2cc1[N+](=O)[O-] (centres unmarked) [Example 25-05] |
| < 0.5 µM | CCOC(=O)C1Cc2c(C3CCNCC3)cc(-c3c(O)cccc3OCC3CC3)nc2NC1=O (centres unmarked) [Example 26-04] |
| < 0.5 µM | O=C(c1cc2c(C3CCCNC3)cc(-c3c(O)cccc3OCC3CC3)nc2[nH]c1=O)N1CCOCC1 (centres unmarked) [Example 31-08] |
| < 0.5 µM | CC(=O)NCCNc1cc(-c2c(O)cccc2OCC2CC2)nc(N)c1C#N [Example 34-19] |
| < 0.5 µM | O=C(NC1CCC1)c1cc2c(C3CCCNC3)cc(-c3c(O)cccc3OCC3CC3)nc2[nH]c1=O (centres unmarked) [Example 31-22] |
| < 0.5 µM | O=c1[nH]c2nc(-c3c(O)cccc3OCC3CC3)cc(C3CCCNC3)c2cc1S(=O)(=O)c1ccccc1 (centres unmarked) [Example 25-07] |
| < 0.5 µM | N#Cc1c(NCCNCc2ccccc2)cc(-c2ccccc2O)nc1N [Example 34-13] |
| < 0.5 µM | O=C(NCc1ccccc1)c1cc2c(C3CCCNC3)cc(-c3c(O)cccc3OCC3CC3)nc2[nH]c1=O (centres unmarked) [Example 31-06] |
